Results on 21 compounds are retold here after patent US11084800B2 (Achillion Pharmaceuticals, Inc., priority 2017, dated 2021).

For orientation: IC50 means the concentration that gives 50% inhibition.

This experiment deals with Human Factor D (Homo sapiens (Human), UniProt P00746). As to the kind of experiment: Human Factor D Assay. The class given is biochemical. The note with it: Table 6; Factor D 80 nM, substrate Z-L-Lys-SBz; read-out: IC50. The method, boiled down:
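Serum-purified Factor D (80 nM final) preincubated 5 min at room temperature with compound in 50 mM Tris, 1 M NaCl, pH 7.5. Z-L-Lys-SBz and DTNB added at 100 μM each; A405 followed every 30 s for 30 min. IC50 from nonlinear regression of rates versus concentration.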

Sequence of Human Factor D (P00746 26-253): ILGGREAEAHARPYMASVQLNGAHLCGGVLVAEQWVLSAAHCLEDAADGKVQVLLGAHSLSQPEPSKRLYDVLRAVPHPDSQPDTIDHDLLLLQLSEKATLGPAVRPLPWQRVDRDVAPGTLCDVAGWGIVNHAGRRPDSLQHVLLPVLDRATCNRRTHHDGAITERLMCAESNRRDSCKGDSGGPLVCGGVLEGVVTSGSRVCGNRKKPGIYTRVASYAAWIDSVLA

In the case of `CCN(CC)C[C@@]12C[C@@H](C(=O)Nc3nc(Br)ccc3C)N(C(=O)Cn3nc(C(C)=O)c4cc(-c5cnc(C)nc5)cc(C)c43)[C@@H]1C2` [Compound 118, (1R,3S,5R)-2-(2-(3-Acetyl-7-methyl-5-(2-methylpyrimidin-5-yl)-1H-indazol-1-yl)acetyl)-N-(6-bromo-3-methylpyridin-2-yl)-5-((diethylamino)methyl)-2-azabicyclo[3.1.0]hexane-3-carboxamide], the 50% inhibitory concentration (IC50) was under 1 µM. In the case of `CC(=O)c1nn(CC(=O)N2[C@H](C(=O)Nc3nc(Br)ccc3C)C[C@@]3(CN4C[C@H]5CCC[C@H]5C4)C[C@@H]23)c2ccc(-c3cnc(C)nc3)cc12` [Compound 119, (1R,3S,5R)-2-(2-(3-Acetyl-5-(2-methylpyrimidin-5-yl)-1H-indazol-1-yl)acetyl)-N-(6-bromo-3-methylpyridin-2-yl)-5-(((3aR,6aS)-hexahydrocyclopenta[c]pyrrol-2(1H)-yl)methyl)-2-azabicyclo[3.1.0]hexane-3-carboxamide], the IC50 is under 1 µM.

`CNc1ncc(-c2ccc3c(c2)c(C(C)=O)nn3CC(=O)N2[C@H](C(=O)Nc3nc(Br)ccc3C)C[C@@]3(C)C[C@@H]23)cn1` [Compound 120, (1R,3S,5R)-2-(2-(3-Acetyl-5-(2-(methylamino)pyrimidin-5-yl)-1H-indazol-1-yl)acetyl)-N-(6-bromo-3-methylpyridin-2-yl)-5-methyl-2-azabicyclo[3.1.0]hexane-3-carboxamide]: the half-maximal inhibitory concentration (IC50) was under 1 µM. `C=CCCCCN(C)C[C@@]12C[C@@H](C(=O)Nc3nc(Br)ccc3C=C)N(C(=O)Cn3nc(C(C)=O)c4cc(-c5cnc(C)nc5)ccc43)[C@@H]1C2` [Compound 123, (1R,3S,5R)-2-(2-(3-Acetyl-5-(2-methylpyrimidin-5-yl)-1H-indazol-1-yl)acetyl)-N-(6-bromo-3-vinylpyridin-2-yl)-5-((hex-5-en-1-yl(methyl)amino)methyl)-2-azabicyclo[3.1.0]hexane-3-carboxamide]: the IC50 was under 1 µM. Next, `CC(=O)c1nn(CC(=O)N2[C@H](C(=O)Nc3nc(Br)ccc3C)C[C@@]3(C)C[C@@H]23)c2c(C#N)cc(-c3cnc(C)nc3)cc12` [Compound 124, (1R,3S,5R)-2-(2-(3-Acetyl-7-cyano-5-(2-methylpyrimidin-5-yl)-1H-indazol-1-yl)acetyl)-N-(6-bromo-3-methylpyridin-2-yl)-5-methyl-2-azabicyclo[3.1.0]hexane-3-carboxamide]: under 1 µM; `CC(=O)c1nn(CC(=O)N2[C@H](C(=O)Nc3nc(Br)ccc3C)C[C@@]3(C)C[C@@H]23)c2ccc(-c3cnc(N(C)C)nc3)cc12` [Compound 125, (1R,3S,5R)-2-(2-(3-Acetyl-5-(2-(dimethylamino)pyrimidin-5-yl)-1H-indazol-1-yl)acetyl)-N-(6-bromo-3-methylpyridin-2-yl)-5-methyl-2-azabicyclo[3.1.0]hexane-3-carboxamide]: under 1 µM; `CC(=O)c1nn(CC(=O)N2[C@H](C(=O)O)C[C@@]3(C)C[C@@H]23)c2c(C)cc(-c3cnc(C)nc3)cc12` [Compound 126, (1R,3S,5R)-2-(2-(3-acetyl-7-methyl-5-(2-methylpyrimidin-5-yl)-1H-indazol-1-yl)acetyl)-5-methyl-2-azabicyclo[3.1.0]hexane-3-carboxylic acid]: over 10 µM.

In the case of `CC(=O)c1nn(CC(=O)N2[C@H](C(=O)Nc3nc(Br)ccc3C)C[C@@]3(CN4CC5(COC5)C4)C[C@@H]23)c2c(C)cc(-c3cnc(C)nc3)cc12` [Compound 127, (1R,3S,5R)-5-(2-Oxa-6-azaspiro[3.3]heptan-6-ylmethyl)-2-(2-(3-acetyl-7-methyl-5-(2-methylpyrimidin-5-yl)-1H-indazol-1-yl)acetyl)-N-(6-bromo-3-methylpyridin-2-yl)-2-azabicyclo[3.1.0]hexane-3-carboxamide], the IC50 is under 1 µM.

With `CC(=O)c1nn(CC(=O)N2[C@H](C(=O)Nc3nc(Br)ccc3C)C[C@@]3(CN4C[C@H]5CCC[C@H]5C4)C[C@@H]23)c2c(C)cc(-c3cnc(C)nc3)cc12` [Compound 128, (1R,3S,5R)-2-(2-(3-Acetyl-7-methyl-5-(2-methylpyrimidin-5-yl)-1H-indazol-1-yl)acetyl)-N-(6-bromo-3-methylpyridin-2-yl)-5-(((3aR,6aS)-hexahydrocyclopenta[c]pyrrol-2(1H)-yl)methyl)-2-azabicyclo[3.1.0]hexane-3-carboxamide], the 50% inhibitory concentration (IC50) was under 1 µM. Take `CC(=O)c1nn(CC(=O)N2[C@H](C(=O)Nc3nc(Br)ccc3C)C[C@@]3(CN4CC5(CCCC5)C4)C[C@@H]23)c2c(C)cc(-c3cnc(C)nc3)cc12` [Compound 129, (1R,3S,5R)-5-(2-Azaspiro[3.4]octan-2-ylmethyl)-2-(2-(3-acetyl-7-methyl-5-(2-methylpyrimidin-5-yl)-1H-indazol-1-yl)acetyl)-N-(6-bromo-3-methylpyridin-2-yl)-2-azabicyclo[3.1.0]hexane-3-carboxamide]: the IC50 was under 1 µM. In the case of `CC(=O)c1nn(CC(=O)N2[C@H](C(=O)Nc3nc(Br)ccc3C)C[C@@]3(C)C[C@@H]23)c2ccc(-c3cnc(C)nc3)c(F)c12` [Compound 130, (1R,3S,5R)-2-(2-(3-Acetyl-4-fluoro-5-(2-methylpyrimidin-5-yl)-1H-indazol-1-yl)acetyl)-N-(6-bromo-3-methylpyridin-2-yl)-5-methyl-2-azabicyclo[3.1.0]hexane-3-carboxamide], the IC50 was under 1 µM. `CC(=O)c1nn(CC(=O)N2[C@H](C(=O)Nc3nc(Br)ccc3C)C[C@@]3(C)C[C@@H]23)c2c(C3CC3)cc(-c3cnc(C)nc3)cc12` [Compound 131, (1R,3S,5R)-2-(2-(3-Acetyl-7-cyclopropyl-5-(2-methylpyrimidin-5-yl)-1H-indazol-1-yl)acetyl)-N-(6-bromo-3-methylpyridin-2-yl)-5-methyl-2-azabicyclo[3.1.0]hexane-3-carboxamide]: the half-inhibitory concentration (IC50) was under 1 µM. In the case of `CCNC[C@@]12C[C@@H](C(=O)Nc3nc(Br)ccc3C)N(C(=O)Cn3nc(C(C)=O)c4cc(-c5cnc(C)nc5)cc(C)c43)[C@@H]1C2` [Compound 132, (1R,3S,5R)-2-(2-(3-Acetyl-7-methyl-5-(2-methylpyrimidin-5-yl)-1H-indazol-1-yl)acetyl)-N-(6-bromo-3-methylpyridin-2-yl)-5-((ethylamino)methyl)-2-azabicyclo[3.1.0]hexane-3-carboxamide], the IC50 is under 1 µM. `CC(=O)c1nn(CC(=O)N2[C@H](C(=O)Nc3nc(Br)ccc3C)C[C@@]3(C)C[C@@H]23)c2c(C(F)(F)F)cc(-c3cnc(C)nc3)cc12` [Compound 133, (1R,3S,5R)-2-(2-(3-Acetyl-5-(2-methylpyrimidin-5-yl)-7-(trifluoromethyl)-1H-indazol-1-yl)acetyl)-N-(6-bromo-3-methylpyridin-2-yl)-5-methyl-2-azabicyclo[3.1.0]hexane-3-carboxamide]: the IC50 is under 1 µM. For `C=CCOCc1ccc(Br)nc1NC(=O)[C@@H]1C[C@@]2(C=C)C[C@H]2N1C(=O)Cn1nc(C(C)=O)c2cc(-c3cnc(C)nc3)ccc21` [Compound 134, (1R,3S,5R)-2-(2-(3-Acetyl-5-(2-methylpyrimidin-5-yl)-1H-indazol-1-yl)acetyl)-N-(3-((allyloxy)methyl)-6-bromopyridin-2-yl)-5-vinyl-2-azabicyclo[3.1.0]hexane-3-carboxamide], the 50% inhibitory concentration (IC50) is under 1 µM.

Consider `CC(=O)c1nn(CC(=O)N2[C@H](C(=O)Nc3nc(Cl)ccc3CN(C)C)C[C@@]3(C)C[C@@H]23)c2ccc(-c3cnc(C)nc3)cc12` [Compound 135, (1R,3S,5R)-2-(2-(3-Acetyl-5-(2-methylpyrimidin-5-yl)-1H-indazol-1-yl)acetyl)-N-(6-chloro-3-((dimethylamino)methyl)pyridin-2-yl)-5-methyl-2-azabicyclo[3.1.0]hexane-3-carboxamide], for which the IC50 is under 1 µM. With `CC(=O)c1nn(CC(=O)N2[C@H](C(=O)Nc3nc(Br)ccc3CN(C)C)C[C@@]3(C)C[C@@H]23)c2c(C)cc(-c3cnc(C)nc3)cc12` [Compound 136, (1R,3S,5R)-2-(2-(3-Acetyl-7-methyl-5-(2-methylpyrimidin-5-yl)-1H-indazol-1-yl)acetyl)-N-(6-bromo-3-((dimethylamino)methyl)pyridin-2-yl)-5-methyl-2-azabicyclo[3.1.0]hexane-3-carboxamide], the IC50 was under 1 µM. As to `CC(=O)c1nn(CC(=O)N2[C@H](C(=O)Nc3nc(Cl)ccc3CN(C)C)C[C@@]3(C)C[C@@H]23)c2c(C)cc(-c3cnc(C)nc3)cc12` [Compound 137, (1R,3S,5R)-2-(2-(3-Acetyl-7-methyl-5-(2-methylpyrimidin-5-yl)-1H-indazol-1-yl)acetyl)-N-(6-chloro-3-((dimethylamino)methyl)pyridin-2-yl)-5-methyl-2-azabicyclo[3.1.0]hexane-3-carboxamide], the half-maximal inhibitory concentration (IC50) is under 1 µM.

As for `CC(=O)c1nn(CC(=O)N2[C@H](C(=O)Nc3nc(Br)ccc3CN3CCOCC3)C[C@@]3(C)C[C@@H]23)c2ccc(-c3cnc(C)nc3)cc12` [Compound 138, (1R,3S,5R)-2-(2-(3-Acetyl-5-(2-methylpyrimidin-5-yl)-1H-indazol-1-yl)acetyl)-N-(6-bromo-3-(morpholinomethyl)pyridin-2-yl)-5-methyl-2-azabicyclo[3.1.0]hexane-3-carboxamide], the IC50 was under 1 µM. `CC(=O)c1nn(CC(=O)N2[C@H](C(=O)Nc3nc(Cl)ccc3CN3CCOCC3)C[C@@]3(C)C[C@@H]23)c2ccc(-c3cnc(C)nc3)cc12` [Compound 139, (1R,3S,5R)-2-(2-(3-Acetyl-5-(2-methylpyrimidin-5-yl)-1H-indazol-1-yl)acetyl)-N-(6-chloro-3-(morpholinomethyl)pyridin-2-yl)-5-methyl-2-azabicyclo[3.1.0]hexane-3-carboxamide]: the IC50 is under 1 µM. `Cc1ncc(-c2cc(C)c3c(c2)c(C(C)O)nn3CC(=O)N2[C@H](C(=O)Nc3nc(Br)ccc3C)C[C@@]3(C)C[C@@H]23)cn1` (stereo partly drawn) [Compound 140]: the IC50 is under 1 µM.
